One may read the viability as a read-out of living cells in per cent, often relative to untreated cells.

A short description of this series: in vitro. Particulars: human, hela cells, % viability.
Turning to `Cc1ccc(S(=O)(=O)N2C[C@H]3C[C@H](NC(=O)C4CC4C)[C@H]3C2)cc1` (stereo partly drawn) [CBK285318], the viability at 28.5 h, 10 µM was found to be 108%.
Turning to `O=C1NCC2(CCN(Cc3ccccc3)CC2)Oc2ccccc21` [CBK285323], the viability at 28.5 h, 10 µM was 91.8%.
In the case of `Cn1ncc2c1CCCN(C(=O)COc1ccccc1F)C2` [CBK285324] it was 101%; in that of `CCOc1ccc(CC(=O)N2CCCc3c(cnn3C)C2)cc1` [CBK285325], 101%; in that of `Cc1ccc(C(=O)N2CCC3(CC2)CNC(=O)c2ccccc2O3)o1` [CBK285328], 88.3%.
In the case of `COC(=O)C1(Cc2cc(-c3ccc(F)cc3)no2)CCOCC1` [CBK285329] it was 79.3%; in that of `COC(=O)C1(Cc2cc(-c3cccc(F)c3)no2)CCOCC1` [CBK285330], 95.8%.
The same measure for `COc1ccc(-c2[nH]c3ncccc3c2CN2CCCC2)cc1` [CBK285331]: 69.4%.
`CN1CCN(Cc2c(C3CCCC3)[nH]c3ncccc23)CC1` [CBK285336]: the viability at 28.5 h, 10 µM was found to be 88.6%.
`COc1ccc(-c2[nH]c3ncccc3c2CN2CCSCC2)cc1` [CBK285338]: the viability at 28.5 h, 10 µM came out at 91.9%.
The same measure for `CCN1CCN(Cc2c(C(C)C)[nH]c3ncccc23)CC1` [CBK285343]: 83.6%.
On to `CC1CN(Cc2c(C(F)(F)F)[nH]c3ncccc23)CC(C)O1` (stereo not drawn) [CBK285344], for which the viability at 28.5 h, 10 µM stood at 88.5%.
In the case of `O=C1NCCCC12CCN(Cc1ccc(F)cc1)CC2` [CBK285345] it was 83.1%.
In the case of `O=C(NCc1ccccn1)c1ccc(-n2ccnc2)c(-n2cccc2)c1` [CBK285347] it was 80.8%.
`COCC(=O)NC1CCN(CC2(c3ccc(C)cc3)CC2)CC1` [CBK285350]: the viability at 28.5 h, 10 µM was 104%.
Consider `O=C(NC1CCN(CC2(c3ccccc3)CC2)CC1)c1cc[nH]n1` [CBK285351], for which the viability at 28.5 h, 10 µM worked out at 88.4%.
Consider `O=C(NC1CCN(CC2(c3ccccc3)CC2)CC1)C1CCOCC1` [CBK285352], for which the viability at 28.5 h, 10 µM came to 94.4%.
In the case of `CC1CC1C(=O)NC1CCN(CC2(c3ccccc3)CC2)CC1` (stereo not drawn) [CBK285353] it was 83.2%.
Regarding `CC(C)N1CCN(Cc2c(C(F)(F)F)[nH]c3ncccc23)CC1` [CBK285354], the viability at 28.5 h, 10 µM came out at 88.3%.
The same measure for `COc1ccc(C2(CN3CCC(NC(C)=O)CC3)CC2)cc1` [CBK285357]: 101%; for `COc1ccc(C2(CN3CCC(NC(=O)C4CC4)CC3)CC2)cc1` [CBK285358]: 101%; for `Cc1ccc(C2(CN3CCC(NC(=O)C4CC4)CC3)CC2)cc1` [CBK285359]: 83.9%.
Take `CCN1CCN(Cc2c(C(F)(F)F)[nH]c3ncccc23)CC1` [CBK285362]: the viability at 28.5 h, 10 µM was determined as 95.2%.
The same measure for `O=C(c1ccc(-n2ccnc2)c(-n2cccc2)c1)N1CCSCC1` [CBK285364]: 97.4%; for `O=C(NC1CCCCC1)c1ccc(-n2ccnc2)c(-n2cccc2)c1` [CBK285365]: 107%.
As for `O=C(NCc1cccs1)c1ccc(-n2ccnc2)c(-n2cccc2)c1` [CBK285366], the viability at 28.5 h, 10 µM is 102%.
As for `COCCNC(=O)c1ccc(-n2ccnc2)c(-n2cccc2)c1` [CBK285369], the viability at 28.5 h, 10 µM turned out to be 85.5%.
Take `CC1CCCN(C(=O)c2ccc(-n3ccnc3)c(-n3cccc3)c2)C1` (stereo not drawn) [CBK285370]: the viability at 28.5 h, 10 µM was 95.1%.
The same measure for `COc1ccc(-c2cc3cccnc3n2CC(=O)N2CCCC2)cc1` [CBK285379]: 84.3%; for `COc1ccc(-c2cc3cccnc3n2CC(=O)NC(C)C)cc1` [CBK285380]: 100%; for `COc1ccc(-c2cc3cccnc3n2CC(=O)NC(C)(C)C)cc1` [CBK285381]: 115%.
The same measure for `COCCCNC(=O)Cn1c(-c2ccc(F)cc2)cc2cccnc21` [CBK285385]: 88.5%.
On to `Cc1nccn1CC1(O)CCN(C(=O)C(C)c2ccccc2)CC1` (stereo not drawn) [CBK285388], for which the viability at 28.5 h, 10 µM amounted to 104%.
For the molecule `Cc1nc(CC(=O)NC(Cc2ccsc2)c2cccnc2)cs1` (stereo not drawn) [CBK285389], the viability at 28.5 h, 10 µM worked out at 110%.
In the case of `Cc1csc(C(Cc2ccsc2)NC(=O)CCn2ccnc2)n1` (stereo not drawn) [CBK285391] it was 91.2%; in that of `Cc1nn(C)cc1C(=O)NC(Cc1ccsc1)c1cccnc1` (stereo not drawn) [CBK285392], 109%; in that of `O=C(CCn1cccn1)NC(Cc1ccsc1)c1cccnc1` (stereo not drawn) [CBK285393], 101%.
`COc1ccc(-c2cc(C3CCCCCN3)no2)cc1` (stereo not drawn) [CBK285399]: the viability at 28.5 h, 10 µM was 96.5%.
With `Cc1cc(C[C@@H]2COC[C@H]2NCc2ccc(Cl)c(Cl)c2)on1` [CBK285400], the viability at 28.5 h, 10 µM was 88%.
On to `CC(=O)Nc1ccc(CN2CCCCCC2c2cc(C)no2)cc1` (stereo not drawn) [CBK285415], for which the viability at 28.5 h, 10 µM turned out to be 101%.
In the case of `COc1cccc(C(=O)N2CCCC(c3cc4cnccc4[nH]3)C2)c1` (stereo not drawn) [CBK285417] it was 104%; in that of `Cc1cc(CN2CC3CCCN3C[C@@H]2C)c(C)n1CC1CCCO1` (stereo partly drawn) [CBK285419], 82%; in that of `CSCC[C@@H]1CN2CCC[C@H]2CN1Cc1cnc(C)n1C` [CBK285423], 109%.
In the case of `C[C@@H]1CN2CCCC2CN1CCc1ccccc1` (stereo partly drawn) [CBK285424] it was 85.4%.
As for `C[C@H]1CN2C[C@H](O)CC2CN1Cc1cn(C)c2ccc(F)cc12` (stereo partly drawn) [CBK285428], the viability at 28.5 h, 10 µM amounted to 97.6%.
The same measure for `OCC[C@H]1CN2CCCC2CN1Cc1cccc(Cl)c1Cl` (stereo partly drawn) [CBK285429]: 86.6%; for `O=C(C1CCC1)N1CCC(c2nc(C3CCCC3)no2)C1` (stereo not drawn) [CBK285434]: 88.1%; for `CCOc1ccccc1CN1CC2CCCN2C[C@@H]1C` (stereo partly drawn) [CBK285435]: 94.7%.
The same measure for `C[C@H]1CN2C[C@H](O)CC2CN1Cc1ccc(Br)s1` (stereo partly drawn) [CBK285439]: 96.1%; for `C[C@H]1CN2CCCC2CN1Cc1ccc2c(c1)CCO2` (stereo partly drawn) [CBK285443]: 104%.
In the case of `Cc1cc(C2CCCCCN2C(=O)c2ccc(F)cc2)on1` (stereo not drawn) [CBK285447] it was 106%.
Turning to `C[C@H]1CN2CCCC2CN1Cc1cccc(F)c1F` (stereo partly drawn) [CBK285454], the viability at 28.5 h, 10 µM was 111%.
The same measure for `O[C@@]1(c2ccccn2)CC[C@H]2CN(Cc3ccc(F)c(F)c3)C[C@H]21` [CBK285456]: 107%.
In the case of `CC(=O)NC(c1ccccn1)C1CCN(Cc2cccc(F)c2)CC1` (stereo not drawn) [CBK285461], the viability at 28.5 h, 10 µM was found to be 104%.
`Cc1cc(C[C@@H]2COC[C@H]2NCc2ccccc2C(F)(F)F)on1` [CBK285464]: the viability at 28.5 h, 10 µM is 100%.
The same measure for `C[C@H]1CN2C[C@H](O)CC2CN1Cc1cccn1-c1ccc(F)cc1` (stereo partly drawn) [CBK285465]: 97.4%.
In the case of `CCCn1cc(CN2CC3C[C@@H](O)CN3C[C@@H]2C)c2ccccc21` (stereo partly drawn) [CBK285466] it was 104%; in that of `Cc1ccc(C(C)CCN2CC3CCCN3C[C@H]2C)o1` (stereo partly drawn) [CBK285467], 101%; in that of `CCn1cc([C@H]2CN(C)C[C@@H]2N(C)C)c2ccccc21` [CBK285468], 108%.
Take `COC(=O)[C@H]1CN(C(=O)C2CC(=O)N(C)C2)C[C@@H]1c1ccccc1F` (stereo partly drawn) [CBK285470]: the viability at 28.5 h, 10 µM worked out at 94.7%.
In the case of `O=C(NC1CC1)[C@@H]1C=CCN1S(=O)(=O)c1ccccc1Cl` [CBK285479] it was 103%.
The same measure for `CCCc1ccc(C(=O)N2CCC(C(=O)c3cccnc3)CC2)o1` [CBK285482]: 101%; for `Cc1ncsc1C(=O)N1CCN(Cc2ccco2)C[C@@H]1C(C)C` [CBK285486]: 101%.
With `COc1cccc(CN2CCN(C(=O)N3CCCC3)[C@@H](C)C2)c1` [CBK285491], the viability at 28.5 h, 10 µM is 107%.
Take `O=C(C1CCCC1)N1C[C@@H]2CCCCN(CC3CC3)[C@@H]2C1` [CBK285493]: the viability at 28.5 h, 10 µM stood at 104%.
`COC(=O)CN1CCCC[C@H]2CN(C(=O)C3CCC3)C[C@H]21` [CBK285496]: the viability at 28.5 h, 10 µM was 103%.
For the molecule `O=C(Cc1ccccc1)N1C[C@@H]2CCCCN(CC3CC3)[C@@H]2C1` [CBK285497], the viability at 28.5 h, 10 µM amounted to 111%.
As to `Cc1cnccc1-c1c[nH]nc1C1CCCN1C(=O)c1ccccc1` (stereo not drawn) [CBK285499], the viability at 28.5 h, 10 µM turned out to be 104%.
Turning to `C=CCN1CCCC[C@H]2CN(S(=O)(=O)c3cccc(F)c3)C[C@H]21` [CBK285500], the viability at 28.5 h, 10 µM was 103%.
For `O=S(=O)(c1ccccc1)N1C[C@@H]2CCCCN(CC3CC3)[C@@H]2C1` [CBK285501], the viability at 28.5 h, 10 µM was determined as 109%.
On to `COc1ccc([C@H]2CN(C(C)=O)[C@@H]3CCN(CC4CC4)C[C@H]23)cc1` [CBK285502], for which the viability at 28.5 h, 10 µM was 98.1%.
Consider `O=C(c1cccs1)N1C[C@@H]2CCCCN(C3CCOCC3)[C@@H]2C1` [CBK285503], for which the viability at 28.5 h, 10 µM is 107%.
The same measure for `O=C(CN1CCCC[C@H]2CN(C(=O)c3cccs3)C[C@H]21)NC1CC1` [CBK285504]: 90.5%.
Take `Cc1cc(C)n(CCC(=O)N2C[C@@H]3CCCCN(CC4CC4)[C@@H]3C2)n1` [CBK285505]: the viability at 28.5 h, 10 µM is 102%.
In the case of `CC(=O)N1C[C@@H]2CCCCN(CC(=O)NC3CC3)[C@@H]2C1` [CBK285508] it was 101%; in that of `CC(C)N1CCCC[C@H]2CN(C(=O)C3OCCc4ccccc43)C[C@H]21` (stereo partly drawn) [CBK285511], 104%; in that of `CS(=O)(=O)N1C[C@@H]2CCCCN(Cc3cccc(F)c3)[C@@H]2C1` [CBK285514], 103%.
In the case of `CC(=O)NCC(=O)N1C[C@@H]2CCCCN(Cc3cccc(F)c3)[C@@H]2C1` [CBK285515] it was 90.1%; in that of `Cc1ccc(-c2nnc(C3CCCN(C(=O)C4CC4)C3)o2)s1` (stereo not drawn) [CBK285516], 83.9%; in that of `COC(=O)[C@H]1CCc2ccccc2N1C(=O)C1CC1` [CBK285518], 78.9%.
Consider `CN(C)C(=O)C1(Cc2ccccc2-c2cccnc2)CCN(Cc2ccccc2)CC1` [CBK285522], for which the viability at 28.5 h, 10 µM worked out at 85.7%.
